Experimental data as given in the NIST ThermoML archive (doi:10.1021/je060271a).

Settings: 283.16 K, Liquid, Vibrating tube method

CCCC(=O)OCC(COC(=O)CCC)(COC(=O)CCC)COC(=O)CCC [pentaerythritol tetrabutyrate]
Settings | mass density [kg/m3]
13019 kPa | 1066.7
13044 kPa | 1066.7
13070 kPa | 1066.6
13101 kPa | 1066.6
13127 kPa | 1066.5
13208 kPa | 1066.8
13264 kPa | 1066.8
13291 kPa | 1066.8
13317 kPa | 1066.7
13343 kPa | 1066.8
13374 kPa | 1066.8
13401 kPa | 1066.8
13427 kPa | 1066.8
13460 kPa | 1066.8
13487 kPa | 1066.9
13514 kPa | 1066.9
13541 kPa | 1066.9
13574 kPa | 1066.9
13601 kPa | 1066.9
13628 kPa | 1066.9
13661 kPa | 1067
13689 kPa | 1066.9
13722 kPa | 1067.2
13750 kPa | 1067
13778 kPa | 1067
13807 kPa | 1067.1
13841 kPa | 1067
13870 kPa | 1067.1
13927 kPa | 1067.1
13962 kPa | 1067
13990 kPa | 1067.2
14025 kPa | 1067.1
14054 kPa | 1067.1
14084 kPa | 1067.2
14113 kPa | 1067.2
14149 kPa | 1067.3
14178 kPa | 1067.2
14208 kPa | 1067.2
14245 kPa | 1067.2
14275 kPa | 1067.3
14306 kPa | 1067.5
14343 kPa | 1067.3
14374 kPa | 1067.3
14405 kPa | 1067.4
14436 kPa | 1067.4
14474 kPa | 1067.4
14504 kPa | 1067.4
14536 kPa | 1067.5
14574 kPa | 1067.4
14605 kPa | 1067.5
14638 kPa | 1067.5
14677 kPa | 1067.4
14709 kPa | 1067.5
14741 kPa | 1067.6
14774 kPa | 1067.5
14814 kPa | 1067.7
14846 kPa | 1067.6
14886 kPa | 1067.6
14919 kPa | 1067.6
14952 kPa | 1067.7
14985 kPa | 1067.6
15026 kPa | 1067.6
15059 kPa | 1067.8
15094 kPa | 1067.7
15136 kPa | 1067.7
15170 kPa | 1067.7
15205 kPa | 1067.7
15246 kPa | 1067.9
15282 kPa | 1067.9
15317 kPa | 1067.9
15359 kPa | 1067.8
15394 kPa | 1067.9
15430 kPa | 1068
15473 kPa | 1067.9
15545 kPa | 1067.9
15944 kPa | 1068.3
15983 kPa | 1068.2
16022 kPa | 1068.3
16069 kPa | 1068.4
16110 kPa | 1068.4
16153 kPa | 1068.4
16192 kPa | 1068.3
16240 kPa | 1068.4
16281 kPa | 1068.3
16322 kPa | 1068.3
16363 kPa | 1068.4
16414 kPa | 1068.4
16456 kPa | 1068.5
16498 kPa | 1068.5
16547 kPa | 1068.6
16580 kPa | 1068.5
16614 kPa | 1068.6
16656 kPa | 1068.6
16691 kPa | 1068.8
16726 kPa | 1068.6
16769 kPa | 1068.7
16805 kPa | 1068.8
16839 kPa | 1068.7
16871 kPa | 1068.8
16898 kPa | 1068.8
16924 kPa | 1068.6
16956 kPa | 1068.8
16983 kPa | 1068.7
17011 kPa | 1068.9
17044 kPa | 1068.9
17074 kPa | 1068.9
17104 kPa | 1068.8
17139 kPa | 1069
17162 kPa | 1068.9
17182 kPa | 1068.8
17202 kPa | 1069
17225 kPa | 1068.9
17237 kPa | 1069
17246 kPa | 1069
17257 kPa | 1069
17266 kPa | 1069
17275 kPa | 1068.9
17284 kPa | 1068.8
17295 kPa | 1069
17304 kPa | 1068.9
17313 kPa | 1069.1
17322 kPa | 1069.1
17333 kPa | 1069.1
17342 kPa | 1069
17352 kPa | 1069
17362 kPa | 1069.1
17371 kPa | 1069
17380 kPa | 1069.1
17391 kPa | 1069.1
17400 kPa | 1069
17411 kPa | 1069
17420 kPa | 1069
17429 kPa | 1069.2
17440 kPa | 1069.1
17449 kPa | 1069.1
17458 kPa | 1069
17469 kPa | 1069.1
17478 kPa | 1069.1
17487 kPa | 1069
17498 kPa | 1069.2
17508 kPa | 1069.1
17517 kPa | 1069.1
17528 kPa | 1069.1
17538 kPa | 1069.1
17547 kPa | 1069.1
17556 kPa | 1069.2
